Tests used:
Assay in all cases: MIC determination, isogenic E. coli strains
Format in all cases: cell-based
[1] = system: Isogenic E. coli J58 strain carrying IMP-1; details: for MICs for an E. coli strain carrying the gene for carbapenemase IMP-1, in words: review of Tables 4-1 and 4-2; for MIC: Escherichia coli, 18 h, read-out: Mimimum Inhibitory Concentrations, IMP-1
Experimental: (§1) Sterile technique was used throughout these experiments. Suspensions of organisms were removed from storage (−80° C.) and partially thawed. Partially thawed organisms (1 μL) were inoculated into 3 mL sterile LB Broth in a sterile culture tube and capped, then cultured at 37° C. with shaking for 4-5 hours until the optical density at 600 nm (OD600) was greater than 0.1 on a single beam spectrophotometer.
(§2) The concentration of organisms was adjusted to 0.08-0.1 OD600 (0.5 McFarland units) by dilution with sterile cation-adjusted Meuller-Hinton (CAMH) broth. The suspensions were used within 30 minutes of preparation.
(§3) A stock solution was made of each test compound by measuring 6.4 mg of the compound on an analytical balance and dissolving it in DMSO (1 mL) to get a transparent solution. The solutions were stored at −20° C. and thawed prior to use.
(§4) Sterile CAMH broth (200 μL) containing 20 μM Apo-Transferrin was pipetted into the first row of 8 columns of a sterile, round-bottomed, transparent, 96-well microplate using an 8-channel pipette equipped with sterile tips. One hundred μL was pipetted into the wells of the remaining 11 rows.
(§5) With an 8-channel pipette equipped with sterile tips, 100 μL of the first row solution was transferred to the second row and mixed. The process was repeated for the second to third rows and continued through row 11. One hundred μL from row 11 was removed and discarded so that all 12 rows contained 100 μL. Row 12 contained no compound and rows 1-11 contained 64, 32, 16, 8, 4, 2, 1, 0.5, 0.25, 0.125, […] of a given compound.
(§6) Inoculant suspensions (0.5 μL) were added to the 12 wells of each column. The plates were then covered and incubated at 37° C. overnight for 18 hours.
(§7) For each organism the MIC was determined by identifying the transparent well with the lowest test compound concentration.
IMP-1 (Group 3a carbapenemase, metallo-beta-Lactamase).
(§8) The gene sequence for each beta-lactamase enzyme was synthesized and inserted into the pBC-SK(+) plasmid by GenScript, a commercial service. E. coli J53 was transformed with each plasmid via electroporation and resistant transformants were selected on agar plates containing 50 micrograms/mL ampicillin. The selected transformants were stored at −80 degrees C. in 20% glycerol.

[2] = system: Isogenic E. coli J58 strain carrying KPC-2; details: for MIC: Escherichia coli, 18 h, read-out: Mimimum Inhibitory Concentrations, KPC-2
Experimental: as §1, §2, §3, §4, §5, §6, §7
(§9) KPC-2 and KPC-3 (Class A, Group 2f, carbapenemases);
as §8

[3] = system: Isogenic E. coli J58 strain carrying KPC-3; details: for MIC: Escherichia coli, 18 h, read-out: Mimimum Inhibitory Concentrations, KPC-3
Experimental: as §1, §2, §3, §4, §5, §6, §7, §9, §8

[4] = system: Isogenic E. coli J58 strain carrying NDM-1; details: for MIC: Escherichia coli, 18 h, read-out: Mimimum Inhibitory Concentrations, NDM-1
Experimental: as §1, §2, §3, §4, §5, §6, §7
NDM-1 (Group 3a carbapenemase, broad spectrum divalent Zn^++ metallo-Beta-Lactamase);
as §8

[5] = system: Isogenic E. coli J58 strain carrying DHA-1; details: for MIC: Escherichia coli, 18 h, read-out: Mimimum Inhibitory Concentrations, DHA-1
Experimental: as §1, §2, §3, §4, §5, §6, §7, §8

E. coli J53 Alone = details: for Mimimum Inhibitory Concentrations, J53 Alone: CAMH broth, 20 μM Apo-Transferrin, 37° C., 18 hours; for MIC: Escherichia coli, J53ALONE, 18 h, read-out: Mimimum Inhibitory Concentrations, J53 Alone
Experimental: as §1, §2, §3, §4, §5, §6, §7, §8

[6] = system: Isogenic E. coli J58 strain carrying CTX-M-14; details: for MIC: Escherichia coli, 18 h, read-out: Mimimum Inhibitory Concentrations, CTX-M-14
Experimental: as §1, §2, §3, §4, §5, §6, §7
(§10) CTX-M-14 and CTX-M-15 (Class A, Group 2be beta-lactamases, hydrolyzes extended spectrum cephalosporins and monobactams);
as §8

[7] = system: Isogenic E. coli J58 strain carrying CTX-M-15; details: for MIC: Escherichia coli, 18 h, read-out: Mimimum Inhibitory Concentrations, CTX-M-15
Experimental: as §1, §2, §3, §4, §5, §6, §7, §10, §8

[8] = system: Isogenic E. coli J58 strain carrying SHV-1; details: for MIC: Escherichia coli, 18 h, read-out: Mimimum Inhibitory Concentrations, SHV-1
Experimental: as §1, §2, §3, §4, §5, §6, §7
SHV-1 (Class A, Group 2b beta-lactamase, hydrolyzes penicillins and early cephalosporins);
as §8

[9] = system: Isogenic E. coli J58 strain carrying TEM-26; details: for MIC: Escherichia coli, 18 h, read-out: Mimimum Inhibitory Concentrations, TEM-26
Experimental: as §1, §2, §3, §4, §5, §6, §7
TEM-26 (Group 2be beta-lactamase, hydrolyzes extended spectrum cephalosporins and monobactams), [25];
as §8

[10] = system: Isogenic E. coli J58 strain carrying VIM-2; details: for MIC: Escherichia coli, 18 h, read-out: Mimimum Inhibitory Concentrations, VIM-2
Experimental: as §1, §2, §3, §4, §5, §6, §7
VIM-2 (Group 3a carbapenemase, metallo-beta-lactamase); and
as §8

| Compound | MICs for an E. coli strain carrying the gene for carbapenemase IMP-1, in words [1] | Mimimum Inhibitory Concentrations, J53 Alone (E. coli J53 Alone; Table 4-2) [microgram/mL] | MIC [1] [µg/mL] | MIC [2] [µg/mL] | MIC [3] [µg/mL] | MIC [4] [µg/mL] | MIC [5] [µg/mL] | MIC (E. coli J53 Alone) [µg/mL] | MIC [6] [µg/mL] | MIC [7] [µg/mL] | MIC [8] [µg/mL] | MIC [9] [µg/mL] | MIC [10] [µg/mL] | also measured |
| --- | --- | --- | --- | --- | --- | --- | --- | --- | --- | --- | --- | --- | --- | --- |
| CC(C)(O/N=C(\C(=O)N[C@@H]1C(=O)N2C(C(=O)O)=C(C=Cc3ccc(C[N+]4(C)CCc5cc(O)c(O)cc5C4)cc3)CS[C@H]12)c1nsc(N)n1)C(=O)O (mixture of isomers) [Compound 437, 2-(4-((E/Z)-2-((6R,7R)-7-((Z)-2-(5-amino-1,2,4-thiadiazol-3-yl)-2-(((2-carboxypropan-2-yl)oxy)imino)acetamido)-2-carboxy-8-oxo-5-thia-1-azabicyclo[4.2.0]oct-2-en-3-yl)vinyl)benzyl)-6,7-dihydroxy-2-methyl-1,2,3,4-tetrahydroisoquinolin-2-ium] | low microgram/mL MICs | 0.25 |  |  |  |  |  |  |  |  |  |  |  | Mimimum Inhibitory Concentrations, IMP-1 ([1]; isogenic E. coli strain, IMP-1, CAMH broth, 20 μM Apo-Transferrin, 37° C., 18 hours): 0.13 microgram/mL; Mimimum Inhibitory Concentrations, KPC-2 ([2]; isogenic E. coli strain, KPC-2, CAMH broth, 20 μM Apo-Transferrin, 37° C., 18 hours): 16 microgram/mL; Mimimum Inhibitory Concentrations, KPC-3 ([3]; isogenic E. coli strain, KPC-3, CAMH broth, 20 μM Apo-Transferrin, 37° C., 18 hours): 2 microgram/mL; Mimimum Inhibitory Concentrations, NDM-1 ([4]; isogenic E. coli strain, NDM-1, CAMH broth, 20 μM Apo-Transferrin, 37° C., 18 hours): >64 microgram/mL; Mimimum Inhibitory Concentrations, DHA-1 ([5]; isogenic E. coli strain, DHA-1, CAMH broth, 20 μM Apo-Transferrin, 37° C., 18 hours): 0.5 microgram/mL; Mimimum Inhibitory Concentrations, J53 Alone (E. coli J53 Alone; Table 4-1): 0.25 microgram/mL; Mimimum Inhibitory Concentrations, CTX-M-14 ([6]; isogenic E. coli strain, CTX-M-14, CAMH broth, 20 μM Apo-Transferrin, 37° C., 18 hours): 4 microgram/mL; Mimimum Inhibitory Concentrations, CTX-M-15 ([7]; isogenic E. coli strain, CTX-M-15, CAMH broth, 20 μM Apo-Transferrin, 37° C., 18 hours): 0.5 microgram/mL; Mimimum Inhibitory Concentrations, SHV-1 ([8]; isogenic E. coli strain, SHV-1, CAMH broth, 20 μM Apo-Transferrin, 37° C., 18 hours): 2 microgram/mL; Mimimum Inhibitory Concentrations, TEM-26 ([9]; isogenic E. coli strain, TEM-26, CAMH broth, 20 μM Apo-Transferrin, 37° C., 18 hours): 1 microgram/mL; Mimimum Inhibitory Concentrations, VIM-2 ([10]; isogenic E. coli strain, VIM-2, CAMH broth, 20 μM Apo-Transferrin, 37° C., 18 hours): 1 microgram/mL |
| CC(C)(O/N=C(\C(=O)N[C@@H]1C(=O)N2C(C(=O)O)=C(C=Cc3ccc(C[N+](C)(C)CCc4ccc(O)c(O)c4)cc3)CS[C@H]12)c1csc(N)n1)C(=O)O (mixture of isomers) [Compound 440, N-(4-((E/Z)-2-((6R,7R)-7-((Z)-2-(2-aminothiazol-4-yl)-2-(((2-carboxypropan-2-yl)oxy)imino)acetamido)-2-carboxy-8-oxo-5-thia-1-azabicyclo[4.2.0]oct-2-en-3-yl)vinyl)benzyl)-2-(3,4-dihydroxyphenyl)-N,N-dimethylethan-1-aminium] | low microgram/mL MICs | 0.25 | 0.13 | 16 | 4 | > 64 | 0.25 | 0.25 | 2 | 0.25 | 1 | 1 | 0.25 |  |
| CC(C)(O/N=C(\C(=O)N[C@@H]1C(=O)N2C(C(=O)O)=C(C=Cc3ccc(C[N+]4(C)CCc5c(ccc(O)c5O)C4)cc3)CS[C@H]12)c1csc(N)n1)C(=O)O (mixture of isomers) [Compound 441, 2-(4-((E/Z)-2-((6R,7R)-7-((Z)-2-(2-aminothiazol-4-yl)-2-(((2-carboxypropan-2-yl)oxy)imino)acetamido)-2-carboxy-8-oxo-5-thia-1-azabicyclo[4.2.0]oct-2-en-3-yl)vinyl)benzyl)-5,6-dihydroxy-2-methyl-1,2,3,4-tetrahydroisoquinolin-2-ium] |  | 0.25 | 1 | 4 | 1 | > 64 | 0.5 | 0.25 | 1 | 0.5 | 1 | 1 | 0.25 |  |
